Here are results for 9 compounds from patent US20180371044A1, “PEPTIDOMIMETIC MACROCYCLES” (Aileron Therapeutics, Inc., priority 2015, published 2018).

One may read the EC50 as the concentration that produces a half-maximal response. The low end stands for a more potent agent, the high end for a less potent agent.

SMILES strings stand for the structures. Where a SMILES comes first, the peptide text is derived from it. Bridges are numbered along the chain shown (N, C = ends). [ ]: non-standard residue; d: D form. NMeY = CN[C@@H](Cc1ccc(O)cc1)C(=O)O; R8 = C=CCCCCCC[C@@](C)(N)C(=O)O; S5 = C=CCCC[C@](C)(N)C(=O)O; Nle = CCCC[C@H](N)C(=O)O; Aib = CC(C)(N)C(=O)O Bounds are passed on as bounds.

The target of this experiment is T1, human GHRH receptor (hGHRHR) (Homo sapiens, UniProt Q02643).
T1 construct: expressed in transfected cells; host or cells: Human 293 cells
T1 sequence (Q02643 23-423): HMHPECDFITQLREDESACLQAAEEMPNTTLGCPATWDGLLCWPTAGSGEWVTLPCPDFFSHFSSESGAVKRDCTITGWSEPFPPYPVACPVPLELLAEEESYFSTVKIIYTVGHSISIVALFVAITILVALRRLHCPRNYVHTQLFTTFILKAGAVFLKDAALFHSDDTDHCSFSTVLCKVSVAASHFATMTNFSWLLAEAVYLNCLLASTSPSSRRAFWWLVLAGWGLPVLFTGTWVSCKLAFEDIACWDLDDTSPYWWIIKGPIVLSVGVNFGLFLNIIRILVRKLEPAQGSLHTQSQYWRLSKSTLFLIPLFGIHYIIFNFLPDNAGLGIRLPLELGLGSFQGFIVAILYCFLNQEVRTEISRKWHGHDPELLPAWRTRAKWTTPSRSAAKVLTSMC
The experiment in a line: GHRHR agonism measured by cAMP (HTRF) in human 293 cells expressing hGHRHR.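 Further: receptor expressed transiently or stably, cells stimulated in serum-free medium, EC50 from a non-linear dose-response fit, maximal response defined by reference GHRH stimulation.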 Format: cell-based. As to conditions: 30 min at RT.
The compound `CCCC[C@H](NC(=O)[C@@H](NC(=O)[C@H](CC(=O)O)NC(=O)[C@H](CCC(N)=O)NC(=O)[C@H](CC(C)C)NC(=O)C(C)(C)NC(=O)[C@H](CCCCN)NC(=O)[C@H](CCCNC(=N)N)NC(=O)[C@H](C)NC(=O)[C@H](CO)NC(=O)[C@H](CC(C)C)NC(=O)[C@H](CCC(N)=O)NC(=O)[C@H](C)NC(=O)[C@H](CC(C)C)NC(=O)[C@@H](NC(=O)[C@H](CCCCN)NC(=O)[C@H](CCCNC(=N)N)NC(=O)[C@H](Cc1ccc(O)cc1)NC(=O)[C@H](CO)NC(=O)C(C)(C)NC(=O)[C@@H](NC(=O)[C@H](Cc1ccccc1)NC(=O)[C@@H](NC(=O)[C@H](C)NC(=O)[C@H](CC(=O)O)NC(=O)[C@H](C)NC(=O)[C@H](Cc1ccc(O)cc1)NC)[C@@H](C)CC)[C@@H](C)O)C(C)C)[C@@H](C)CC)C(=O)N[C@@H](CO)C(=O)N[C@@H](CCCNC(=N)N)C(N)=O` [SP-52] (H-[NMeY]ADAIFT[Aib]SYRKVLAQLSARK[Aib]LQDI[Nle]SR-NH2) gave an EC50 of 0.001 to 0.01 µM.

`CCCC[C@H](NC(=O)[C@@H](NC(=O)[C@H](CC(=O)O)NC(=O)C(C)(C)NC(=O)[C@H](CC(C)C)NC(=O)[C@H](C)NC(=O)[C@H](CCCCN)NC(=O)[C@H](CCCNC(=N)N)NC(=O)[C@H](C)NC(=O)[C@H](CO)NC(=O)[C@H](CC(C)C)NC(=O)[C@H](CCC(N)=O)NC(=O)[C@H](C)NC(=O)[C@H](CC(C)C)NC(=O)[C@@H](NC(=O)[C@H](CCCCN)NC(=O)[C@H](CCCNC(=N)N)NC(=O)[C@H](Cc1ccc(O)cc1)NC(=O)[C@H](CO)NC(=O)C(C)(C)NC(=O)[C@@H](NC(=O)[C@H](Cc1ccccc1)NC(=O)[C@@H](NC(=O)[C@H](C)NC(=O)[C@H](CC(=O)O)NC(=O)[C@H](C)NC(=O)[C@H](Cc1ccc(O)cc1)NC)[C@@H](C)CC)[C@@H](C)O)C(C)C)[C@@H](C)CC)C(=O)N[C@@H](CO)C(=O)N[C@@H](CCCNC(=N)N)C(N)=O` [SP-53] (H-[NMeY]ADAIFT[Aib]SYRKVLAQLSARKAL[Aib]DI[Nle]SR-NH2) returned a 50% effective concentration (EC50) of 0.001 to 0.01 µM.

Take `CCCC[C@H](NC(=O)[C@@H](NC(=O)[C@H](CC(=O)O)NC(=O)[C@H](C)NC(=O)[C@H](CC(C)C)NC(=O)[C@H](C)NC(=O)[C@H](CCCCN)NC(=O)[C@H](CCCNC(=N)N)NC(=O)[C@H](C)NC(=O)C(C)(C)NC(=O)[C@H](CC(C)C)NC(=O)[C@H](CCC(N)=O)NC(=O)[C@H](C)NC(=O)[C@H](CC(C)C)NC(=O)[C@@H](NC(=O)[C@H](CCCCN)NC(=O)[C@H](CCCNC(=N)N)NC(=O)[C@H](Cc1ccc(O)cc1)NC(=O)[C@H](CO)NC(=O)[C@H](C)NC(=O)[C@@H](NC(=O)[C@H](Cc1ccccc1)NC(=O)[C@@H](NC(=O)[C@H](C)NC(=O)[C@H](CC(=O)O)NC(=O)[C@H](C)NC(=O)[C@H](Cc1ccc(O)cc1)NC)[C@@H](C)CC)[C@@H](C)O)C(C)C)[C@@H](C)CC)C(=O)N[C@@H](CO)C(=O)N[C@@H](CCCNC(=N)N)C(N)=O` [SP-54] (H-[NMeY]ADAIFTASYRKVLAQL[Aib]ARKALADI[Nle]SR-NH2): the half-maximal effective concentration (EC50) lay within 0.001 to 0.01 µM.

Compound `CCCC[C@H](NC(=O)[C@@H](NC(=O)[C@H](CC(=O)O)NC(=O)C(C)(C)NC(=O)[C@H](CC(C)C)NC(=O)[C@H](C)NC(=O)[C@H](CCCCN)NC(=O)[C@H](CCCNC(=N)N)NC(=O)[C@H](C)NC(=O)C(C)(C)NC(=O)[C@H](CC(C)C)NC(=O)[C@H](CCC(N)=O)NC(=O)[C@H](C)NC(=O)[C@H](CC(C)C)NC(=O)[C@@H](NC(=O)[C@H](CCCCN)NC(=O)[C@H](CCCNC(=N)N)NC(=O)[C@H](Cc1ccc(O)cc1)NC(=O)[C@H](CO)NC(=O)C(C)(C)NC(=O)[C@@H](NC(=O)[C@H](Cc1ccccc1)NC(=O)[C@@H](NC(=O)[C@H](C)NC(=O)[C@H](CC(=O)O)NC(=O)[C@H](C)NC(=O)[C@H](Cc1ccc(O)cc1)NC)[C@@H](C)CC)[C@@H](C)O)C(C)C)[C@@H](C)CC)C(=O)N[C@@H](CO)C(=O)N[C@@H](CCCNC(=N)N)C(N)=O` [SP-55] (H-[NMeY]ADAIFT[Aib]SYRKVLAQL[Aib]ARKAL[Aib]DI[Nle]SR-NH2) yielded a concentration giving a half-maximal response (EC50) of 0.001 to 0.01 µM.

`CCCC[C@H](NC(=O)[C@@H](NC(=O)[C@H](CC(=O)O)NC(=O)[C@H](CCC(N)=O)NC(=O)[C@H](CC(C)C)NC(=O)[C@H](C)NC(=O)[C@H](CCCCN)NC(=O)[C@H](CCCNC(=N)N)NC(=O)[C@]1(C)CCCC=CCCCCCC[C@@](C)(NC(=O)[C@H](CCCNC(=N)N)NC(=O)[C@H](Cc2ccc(O)cc2)NC(=O)[C@H](CO)NC(=O)[C@H](C)NC(=O)[C@@H](NC(=O)[C@H](Cc2ccccc2)NC(=O)[C@@H](NC(=O)[C@H](C)NC(=O)[C@H](CC(=O)O)NC(=O)[C@@H](C)NC(=O)[C@H](Cc2ccc(O)cc2)NC(=O)[C@@H]2CCCN2C(=O)[C@@H]2CCCN2)[C@@H](C)CC)[C@@H](C)O)C(=O)N[C@@H](C(C)C)C(=O)N[C@@H](CC(C)C)C(=O)N[C@@H](C)C(=O)N[C@@H](CCC(N)=O)C(=O)N[C@@H](CC(C)C)C(=O)N[C@@H](CO)C(=O)N1)[C@@H](C)CC)C(=O)N[C@@H](CO)C(=O)N[C@@H](CCCNC(=N)N)C(N)=O` [SP-56] (H-PPY[dA]DAIFTASYR[R8]VLAQLS[S5]RKALQDI[Nle]SR-NH2; staple 14-21): the EC50 is above 0.05 µM.

`CCCC[C@H](NC(=O)[C@@H](NC(=O)[C@H](CC(=O)O)NC(=O)[C@H](CCC(N)=O)NC(=O)[C@H](CC(C)C)NC(=O)[C@H](C)NC(=O)[C@H](CCCCN)NC(=O)[C@H](CCCNC(=N)N)NC(=O)[C@]1(C)CCCC=CCCCCCC[C@@](C)(NC(=O)[C@H](CCCNC(=N)N)NC(=O)[C@H](Cc2ccc(O)cc2)NC(=O)[C@H](CO)NC(=O)[C@H](C)NC(=O)[C@@H](NC(=O)[C@H](Cc2ccccc2)NC(=O)[C@@H](NC(=O)[C@H](C)NC(=O)[C@H](CC(=O)O)NC(=O)[C@H](C)NC(=O)[C@H](Cc2ccc(O)cc2)NC)[C@@H](C)CC)[C@@H](C)O)C(=O)N[C@@H](C(C)C)C(=O)N[C@@H](CC(C)C)C(=O)N[C@@H](C)C(=O)N[C@@H](CCC(N)=O)C(=O)N[C@@H](CC(C)C)C(=O)N[C@@H](CO)C(=O)N1)[C@@H](C)CC)C(=O)N[C@@H](CO)C(=O)N[C@@H](CCCNC(=N)N)C(N)=O` [SP-57] had an EC50 of 0.01 to 0.025 µM.

Regarding `CCCC[C@H](NC(=O)[C@@H](NC(=O)[C@H](CC(=O)O)NC(=O)[C@H](CCC(N)=O)NC(=O)[C@H](CC(C)C)NC(=O)[C@H](C)NC(=O)[C@H](CCCCN)NC(=O)[C@H](CCCNC(=N)N)NC(=O)[C@]1(C)CCCC=CCCCCCC[C@@](C)(NC(=O)[C@H](CCCNC(=N)N)NC(=O)[C@H](Cc2ccc(O)cc2)NC(=O)[C@H](CO)NC(=O)[C@H](C)NC(=O)[C@@H](NC(=O)[C@H](Cc2ccccc2)NC(=O)[C@@H](NC(=O)[C@H](C)NC(=O)[C@H](CC(=O)O)NC(=O)[C@H](C)NC(=O)[C@H](Cc2ccc(O)cc2)NC)[C@@H](C)CC)[C@@H](C)O)C(=O)N[C@@H](C(C)C)C(=O)N[C@@H](CC(C)C)C(=O)N[C@@H](C)C(=O)N[C@@H](CCC(N)=O)C(=O)N[C@@H](CC(C)C)C(=O)N[C@@H](CO)C(=O)N1)[C@@H](C)CC)C(=O)N[C@@H](CO)C(=O)N[C@@H](CCCNC(=N)N)C(=O)N[C@@H](CCC(=O)O)C(=O)N[C@@H](CCC(=O)O)C(=O)N[C@@H](CCC(=O)O)C(N)=O` [SP-59] (H-[NMeY]ADAIFTASYR[R8]VLAQLS[S5]RKALQDI[Nle]SREEE-NH2; staple 12-19), the concentration giving a half-maximal response (EC50) was in the range of 0.025 to 0.05 µM.

For the compound `CCCC[C@H](NC(=O)[C@@H](NC(=O)[C@H](CC(=O)O)NC(=O)[C@H](CCC(N)=O)NC(=O)[C@H](CC(C)C)NC(=O)[C@H](C)NC(=O)[C@H](CCCCN)NC(=O)[C@H](CCCNC(=N)N)NC(=O)[C@]1(C)CCCC=CCCCCCC[C@@](C)(NC(=O)[C@H](CCCNC(=N)N)NC(=O)[C@H](Cc2ccc(O)cc2)NC(=O)[C@H](CO)NC(=O)[C@H](C)NC(=O)[C@@H](NC(=O)[C@H](Cc2ccccc2)NC(=O)[C@@H](NC(=O)[C@H](C)NC(=O)[C@H](CC(=O)O)NC(=O)[C@H](C)NC(=O)[C@H](Cc2ccc(O)cc2)NC)[C@@H](C)CC)[C@@H](C)O)C(=O)N[C@@H](C(C)C)C(=O)N[C@@H](CC(C)C)C(=O)N[C@@H](C)C(=O)N[C@@H](CCC(N)=O)C(=O)N[C@@H](CC(C)C)C(=O)N[C@@H](CO)C(=O)N1)[C@@H](C)CC)C(=O)N[C@@H](CO)C(N)=O` [SP-60] (H-[NMeY]ADAIFTASYR[R8]VLAQLS[S5]RKALQDI[Nle]S-NH2; staple 12-19), the concentration giving a half-maximal response (EC50) is 0.025 to 0.05 µM.

`CCCC[C@H](NC(=O)[C@@H](NC(=O)[C@H](C)NC(=O)[C@H](CCC(N)=O)NC(=O)[C@H](CC(C)C)NC(=O)[C@H](C)NC(=O)[C@H](CCCCN)NC(=O)[C@H](CCCNC(=N)N)NC(=O)[C@]1(C)CCCC=CCCCCCC[C@@](C)(NC(=O)[C@H](CCCNC(=N)N)NC(=O)[C@H](Cc2ccc(O)cc2)NC(=O)[C@H](CO)NC(=O)[C@H](C)NC(=O)[C@@H](NC(=O)[C@H](Cc2ccccc2)NC(=O)[C@@H](NC(=O)[C@H](C)NC(=O)[C@H](CC(=O)O)NC(=O)[C@H](C)NC(=O)[C@H](Cc2ccc(O)cc2)NC)[C@@H](C)CC)[C@@H](C)O)C(=O)N[C@@H](C(C)C)C(=O)N[C@@H](CC(C)C)C(=O)N[C@@H](C)C(=O)N[C@@H](CCC(N)=O)C(=O)N[C@@H](CC(C)C)C(=O)N[C@@H](CO)C(=O)N1)[C@@H](C)CC)C(=O)N[C@@H](CO)C(=O)N[C@@H](CCCNC(=N)N)C(N)=O` [SP-61] (H-[NMeY]ADAIFTASYR[R8]VLAQLS[S5]RKALQAI[Nle]SR-NH2; staple 12-19): the concentration giving a half-maximal response (EC50) was in the range of 0.01 to 0.025 µM.
